The structures appear in SMILES notation.

Holding throughout (assay type): cell-based
The target in data set [1] is T1, Coiled-coil domain-containing protein 6/Tyrosine-protein kinase receptor RET (Homo sapiens) (UniProt P07949+Q16204). Nature of the data set: Inhibition of CCDC6-RET fusion protein (unknown origin) expressed in mouse BaF3 cells assessed as reduction in cell proliferation measured after 48 hrs by MTS assay. For orientation: Tetrazolium assays rely on reduction of a dye to a coloured formazan, in cell work by metabolically active cells.

Data set [2] has as its target T2, Kinesin-1 heavy chain/ Tyrosine-protein kinase receptor RET (Homo sapiens) (UniProt P07949+P33176). Nature of the data set: Inhibition of KIF5B-RET fusion protein (unknown origin) expressed in mouse BaF3 cells assessed as reduction in cell proliferation measured after 48 hrs by MTS assay.
The subject of the next data set is BaF3. Nature of the data set: Inhibition of CCDC6-RET V804M mutant fusion protein (unknown origin) expressed in mouse BaF3 cells assessed as reduction in cell proliferation measured after 48 hrs by MTS assay. The conditions noted are these: Homo sapiens.
For data set [3], the system named is Kinesin-1 heavy chain/ Tyrosine-protein kinase receptor RET (Homo sapiens), P07949+P33176 [V804M]. Description: Inhibition of KIF5B-RET V804M mutant fusion protein (unknown origin) expressed in mouse BaF3 cells assessed as reduction in cell proliferation measured after 48 hrs by MTS assay.
Data set [4] can be described thus: Cytotoxicity against mouse BaF3 cells assessed as reduction in cell proliferation measured after 48 hrs by MTS assay.
The target in data set [5] is T2, Kinesin-1 heavy chain/ Tyrosine-protein kinase receptor RET (Homo sapiens). Nature of the data set: Inhibition of KIF5B-RET fusion protein (unknown origin) expressed in mouse BaF3 cells assessed as cell survival at 2 uM measured after 48 hrs by MTS assay relative to control.
Data set [6] deals with T1, Coiled-coil domain-containing protein 6/Tyrosine-protein kinase receptor RET (Homo sapiens). Description: Inhibition of CCDC6-RET fusion protein (unknown origin) expressed in mouse BaF3 cells assessed as cell survival at 2 uM measured after 48 hrs by MTS assay relative to control.

T1 sequence (P07949 29-1114 limits assumed): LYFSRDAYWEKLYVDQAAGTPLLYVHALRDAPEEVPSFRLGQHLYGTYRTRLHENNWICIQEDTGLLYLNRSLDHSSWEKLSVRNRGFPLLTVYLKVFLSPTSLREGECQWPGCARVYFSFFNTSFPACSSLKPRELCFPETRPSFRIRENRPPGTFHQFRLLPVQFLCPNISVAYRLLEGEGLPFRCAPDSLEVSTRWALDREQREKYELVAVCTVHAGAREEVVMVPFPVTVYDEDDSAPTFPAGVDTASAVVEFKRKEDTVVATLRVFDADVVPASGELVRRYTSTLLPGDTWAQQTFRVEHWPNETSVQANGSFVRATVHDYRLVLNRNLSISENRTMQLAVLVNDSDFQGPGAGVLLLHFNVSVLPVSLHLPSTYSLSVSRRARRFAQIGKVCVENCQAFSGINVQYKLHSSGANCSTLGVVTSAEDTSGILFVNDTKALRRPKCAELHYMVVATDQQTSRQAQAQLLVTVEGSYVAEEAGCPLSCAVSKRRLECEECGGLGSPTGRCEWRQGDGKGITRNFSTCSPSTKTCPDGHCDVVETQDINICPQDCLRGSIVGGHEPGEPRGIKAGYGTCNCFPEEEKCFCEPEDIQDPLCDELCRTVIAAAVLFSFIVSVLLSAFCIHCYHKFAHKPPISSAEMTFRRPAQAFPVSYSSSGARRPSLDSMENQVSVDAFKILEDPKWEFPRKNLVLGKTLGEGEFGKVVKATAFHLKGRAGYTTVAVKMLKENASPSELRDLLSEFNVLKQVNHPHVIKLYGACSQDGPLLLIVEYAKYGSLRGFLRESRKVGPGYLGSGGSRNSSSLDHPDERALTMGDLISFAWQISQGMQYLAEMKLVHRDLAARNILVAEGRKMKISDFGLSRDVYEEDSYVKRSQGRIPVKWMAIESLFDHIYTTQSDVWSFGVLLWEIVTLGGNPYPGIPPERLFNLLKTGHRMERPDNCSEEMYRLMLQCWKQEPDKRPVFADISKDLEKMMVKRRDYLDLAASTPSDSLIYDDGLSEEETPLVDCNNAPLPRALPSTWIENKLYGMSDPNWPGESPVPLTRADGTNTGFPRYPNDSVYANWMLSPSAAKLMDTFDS
T1 sequence (Q16204 2-474 partner limits assumed): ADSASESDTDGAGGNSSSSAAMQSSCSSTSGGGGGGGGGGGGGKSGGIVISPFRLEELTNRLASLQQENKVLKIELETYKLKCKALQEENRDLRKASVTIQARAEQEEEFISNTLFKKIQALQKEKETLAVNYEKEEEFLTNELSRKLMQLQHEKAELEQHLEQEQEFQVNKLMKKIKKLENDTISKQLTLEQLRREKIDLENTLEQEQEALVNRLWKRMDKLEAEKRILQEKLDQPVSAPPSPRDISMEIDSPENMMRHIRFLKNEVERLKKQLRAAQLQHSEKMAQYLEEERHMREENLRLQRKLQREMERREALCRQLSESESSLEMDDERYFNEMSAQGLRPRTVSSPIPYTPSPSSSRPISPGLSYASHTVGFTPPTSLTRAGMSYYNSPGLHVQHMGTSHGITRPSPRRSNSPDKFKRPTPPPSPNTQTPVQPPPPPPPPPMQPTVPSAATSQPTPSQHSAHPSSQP
T2 sequence (P07949 29-1114 limits assumed): as the sequence (P07949 29-1114 limits assumed) above
T2 sequence (P33176 2-963 partner limits assumed): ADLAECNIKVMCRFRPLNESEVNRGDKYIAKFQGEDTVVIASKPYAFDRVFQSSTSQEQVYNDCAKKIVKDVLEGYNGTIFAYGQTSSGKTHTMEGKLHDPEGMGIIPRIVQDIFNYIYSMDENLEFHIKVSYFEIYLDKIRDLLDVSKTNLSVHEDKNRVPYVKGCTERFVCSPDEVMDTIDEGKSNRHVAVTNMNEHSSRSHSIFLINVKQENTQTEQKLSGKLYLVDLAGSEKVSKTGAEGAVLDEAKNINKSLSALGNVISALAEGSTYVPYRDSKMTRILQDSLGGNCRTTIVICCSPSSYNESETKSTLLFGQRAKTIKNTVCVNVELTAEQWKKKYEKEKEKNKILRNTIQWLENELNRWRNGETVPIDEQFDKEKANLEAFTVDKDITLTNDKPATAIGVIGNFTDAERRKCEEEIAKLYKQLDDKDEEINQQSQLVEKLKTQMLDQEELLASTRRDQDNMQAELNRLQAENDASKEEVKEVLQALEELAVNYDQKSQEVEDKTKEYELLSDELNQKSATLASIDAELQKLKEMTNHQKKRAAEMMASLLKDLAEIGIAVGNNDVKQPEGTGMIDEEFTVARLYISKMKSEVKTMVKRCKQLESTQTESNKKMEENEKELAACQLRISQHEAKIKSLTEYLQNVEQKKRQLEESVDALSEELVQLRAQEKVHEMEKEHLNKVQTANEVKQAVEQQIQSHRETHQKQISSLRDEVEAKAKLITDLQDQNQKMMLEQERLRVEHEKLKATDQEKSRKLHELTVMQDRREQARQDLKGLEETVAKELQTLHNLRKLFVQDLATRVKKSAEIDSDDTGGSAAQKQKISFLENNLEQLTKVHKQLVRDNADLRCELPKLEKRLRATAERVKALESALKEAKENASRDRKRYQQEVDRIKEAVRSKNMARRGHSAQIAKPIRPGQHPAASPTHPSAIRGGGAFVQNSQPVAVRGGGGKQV

By GI50 is commonly meant the concentration at which growth is held to half of that of the control. On to `Cc1ccc(C(=O)Nc2ccc(CN3CCN(C)CC3)c(C(F)(F)F)c2)cc1Oc1nc(-c2ccccc2)nc2c1cnn2C`, for which the GI50 came out at 348 nM in data set [1] and 98 nM in data set [2].
The corresponding values for `Cc1ccc(Oc2nc(-c3cccnc3)nc3[nH]ncc23)cc1NC(=O)c1ccc(CN2CCN(C)CC2)c(C(F)(F)F)c1` are 2370 nM and 3890 nM.
`Cc1ccc(C(=O)Nc2ccc(CN3CCN(C)CC3)c(C(F)(F)F)c2)cc1Oc1nc(-c2cccnc2)nc2c1cnn2C`: the GI50 turned out to be 136 nM with BaF3, 39 nM in data set [1], 113 nM in data set [3] and 35 nM in data set [2]. For the same compound, the concentration for 50% growth inhibition (GI50) at 48 h in data set [4] turned out to be 1290 nM.
The corresponding values for `Cc1ccc(C(=O)Nc2ccc(CN3CCN(C)CC3)c(C(F)(F)F)c2)cc1Oc1nc(-c2cccc(O)c2)nc2c1cnn2C` are 499 nM, 178 nM, 274 nM, 28 nM and 2640 nM.
Regarding `Cc1ccc(C(=O)Nc2ccc(CN3CCN(C)CC3)c(C(F)(F)F)c2)cc1Oc1nc(-c2ccncc2)nc2c1cnn2C(C)C`, the GI50 in data set [1] worked out at 1100 nM; in data set [2] it was 915 nM.
Taken in the same sequence, the figures for `CCn1ncc2c(Oc3cc(C(=O)Nc4ccc(CN5CCN(C)CC5)c(C(F)(F)F)c4)ccc3C)nc(-c3ccncc3)nc21` were greater than 10000 nM and greater than 10000 nM.
Taken in the same sequence, the figures for `CN1CCN(Cc2ccc(C(=O)Nc3cc(Oc4nc(-c5cccnc5)nc5c4cnn5C)ccc3Cl)cc2C(F)(F)F)CC1` were 2070 nM and 1390 nM.
For `Cc1ccc(Oc2nc(-c3ccncc3)nc3c2cnn3C)cc1NC(=O)c1ccc(CN2CCN(C)CC2)c(C(F)(F)F)c1`, the GI50 is 4870 nM in the data set with BaF3, 13 nM in data set [1], 4210 nM in data set [3] and 6 nM in data set [2]. The GI50 at 48 h in data set [4] is 2780 nM.
As for `COc1cc2nccc(Oc3ccc(NC(=O)C4(C(=O)Nc5ccc(F)cc5)CC4)cc3)c2cc1OC` [CABOZANTINIB], the GI50 was found to be 1000 nM in the data set on BaF3, 29 nM in data set [1] and 1210 nM in data set [3]. Further, in data set [4], the GI50 at 48 h worked out at 7910 nM.
As to `Cc1ccc(C(=O)Nc2ccc(CN3CCN(C)CC3)c(C(F)(F)F)c2)cc1Oc1nc(-c2cccc(Cl)c2)nc2c1cnn2C`, the GI50 in data set [1] came out at 807 nM; in data set [2], 320 nM.
Consider `Cc1ccc(C(=O)Nc2ccc(CN3CCN(C)CC3)c(C(F)(F)F)c2)cc1Oc1nc(-c2ccoc2)nc2c1cnn2C`, for which the GI50 was 529 nM in the data set with BaF3, 75 nM in data set [1], 290 nM in data set [3] and 14 nM in data set [2]. Also, the GI50 at 48 h in data set [4] is greater than 10000 nM.
In the case of `Cc1ccc(C(=O)Nc2cc(CN3CCN(C)CC3)cc(C(F)(F)F)c2)cc1Oc1nc(-c2cccnc2)nc2c1cnn2C`, the GI50 in data set [1] was found to be 264 nM; in data set [2], 482 nM.
The corresponding values for `Cc1cn(-c2cc(NC(=O)c3ccc(C)c(Oc4nc(-c5cccnc5)nc5c4cnn5C)c3)cc(C(F)(F)F)c2)cn1` are greater than 10000 nM and greater than 10000 nM.
`CO[C@]1(C(=O)N[C@@H](C)c2ccc(-n3cc(F)cn3)nc2)CC[C@H](c2nc(C)cc(Nc3cc(C)[nH]n3)n2)CC1` [PRALSETINIB]: the GI50 (in the data set with BaF3; in data set [1]; in data set [3]; in data set [2]) was less than 4 nM each time. The GI50 at 48 h in data set [4] amounted to 1270 nM.
Take `CN1CCN(Cc2ccc(NC(=O)c3cccc(Oc4nc(-c5cccnc5)nc5c4cnn5C)c3)cc2C(F)(F)F)CC1`: the Survival in data set [5] amounted to 56.5%; in data set [6] it was 65.5%.
`CN1CCN(Cc2ccc(C(=O)Nc3cccc(Oc4nc(-c5cccnc5)nc5c4cnn5C)c3)cc2C(F)(F)F)CC1`: the GI50 in data set [1] is 1110 nM; in data set [2], 953 nM.
On to `Cc1ccc(C(=O)Nc2ccc(CN3CCN(C)CC3)c(C(F)(F)F)c2)cc1Oc1nc(-c2ccc(Cl)cc2)nc2c1cnn2C`, for which the values for the GI50 in data set [1] and in data set [2] were 696 nM and 114 nM, respectively.
Consider `CN1CCN(Cc2ccc(C(=O)Nc3cc(Oc4nc(-c5ccncc5)nc5c4cnn5C)ccc3Cl)cc2C(F)(F)F)CC1`, for which the GI50 with BaF3 is greater than 10000 nM; in data set [1], 16 nM; in data set [3], 8190 nM; in data set [2], 114 nM. Moreover, the GI50 at 48 h in data set [4] worked out at 3400 nM.
On to `CN1CCN(Cc2ccc(C(=O)Nc3cccc(Oc4nc(-c5ccncc5)nc5[nH]ncc45)c3)cc2C(F)(F)F)CC1`, for which the GI50 in data set [1] was found to be 79 nM; in data set [2], 299 nM.
For `Cc1ccc(Oc2nc(-c3ccncc3)nc3c2cnn3C)cc1C(=O)Nc1ccc(CN2CCN(C)CC2)c(C(F)(F)F)c1`, the GI50 stood at 1520 nM in data set [1] and 440 nM in data set [2].
On to `Cc1ccc(Oc2nc(-c3cccnc3)nc3c2cnn3C)cc1C(=O)Nc1ccc(CN2CCN(C)CC2)c(C(F)(F)F)c1`, for which the Survival amounted to 87.5% in data set [5] and 100% in data set [6].
As to `Cc1ccc(C(=O)Nc2ccc(CN3CCN(C)CC3)c(C(F)(F)F)c2)cc1Oc1nc(-c2ccc(O)cc2)nc2c1cnn2C`, the GI50 in data set [1] was found to be 166 nM; in data set [2], 57 nM.
The corresponding values for `Cc1ccc(C(=O)Nc2cccc(C(F)(F)F)c2)cc1Oc1nc(-c2cccnc2)nc2c1cnn2C` are 1970 nM and 2240 nM.
In the case of `CN1CCN(Cc2ccc(C(=O)Nc3cc(Oc4nc(-c5ccncc5)nc5[nH]ncc45)ccc3Cl)cc2C(F)(F)F)CC1`, the GI50 in the data set with BaF3 was 7380 nM; in data set [1], 13 nM; in data set [3], 6520 nM; in data set [2], 22 nM. Further, in data set [4], the GI50 at 48 h was found to be 1010 nM.
Regarding `CN1CCN(Cc2ccc(NC(=O)c3cc(Oc4nc(-c5ccncc5)nc5c4cnn5C)ccc3Cl)cc2C(F)(F)F)CC1`, the values for the GI50 in data set [1] and in data set [2] were 108 nM and 130 nM, respectively.
Regarding `CN1CCN(Cc2ccc(NC(=O)c3cccc(Oc4nc(-c5ccncc5)nc5c4cnn5C)c3)cc2C(F)(F)F)CC1`, the values for the Survival in data set [5] and in data set [6] were 74.9% and 94.1%, respectively.
In the case of `CN1CCN(Cc2ccc(C(=O)Nc3cc(Oc4nc(-c5cccnc5)nc5[nH]ncc45)ccc3Cl)cc2C(F)(F)F)CC1`, the results for the GI50 in data set [1] and in data set [2] were 567 nM and 1350 nM, respectively.
The corresponding values for `CN1CCN(Cc2ccc(NC(=O)c3cc(Oc4nc(-c5cccnc5)nc5c4cnn5C)ccc3Cl)cc2C(F)(F)F)CC1` are 4170 nM and 4020 nM.
Turning to `Cc1ccc(C(=O)Nc2ccc(CN3CCN(C)CC3)c(C(F)(F)F)c2)cc1Oc1nc(-c2ccncc2)nc2c1cnn2C`, the GI50 in the data set on BaF3 worked out at 220 nM; in data set [1], 39 nM; in data set [3], 90 nM; in data set [2] it was 36 nM. For the same compound, the GI50 at 48 h in data set [4] came to 2620 nM.
As to `CN1CCN(Cc2ccc(C(=O)Nc3cccc(Oc4nc(-c5ccncc5)nc5c4cnn5C)c3)cc2C(F)(F)F)CC1`, the GI50 in data set [1] came out at 140 nM; in data set [2], 106 nM.
Taken in the same sequence, the figures for `CN1CCN(Cc2ccc(C(=O)Nc3cccc(Oc4nc(-c5cccnc5)nc5[nH]ncc45)c3)cc2C(F)(F)F)CC1` were 342 nM and 820 nM.
The corresponding values for `Cc1ccc(Oc2nc(-c3cccnc3)nc3c2cnn3C)cc1NC(=O)c1ccc(CN2CCN(C)CC2)c(C(F)(F)F)c1` are 4170 nM and 4420 nM.
Taken in the same sequence, the figures for `Cc1ccc(NC(=O)c2ccc(CN3CCN(C)CC3)c(C(F)(F)F)c2)cc1Oc1nc(-c2ccncc2)nc2c1cnn2C` were 617 nM and 469 nM.
As for `Cc1ccc(Oc2nc(-c3ccncc3)nc3[nH]ncc23)cc1NC(=O)c1ccc(CN2CCN(C)CC2)c(C(F)(F)F)c1`, the GI50 amounted to 1890 nM in the data set on BaF3, 4 nM in data set [1], 757 nM in data set [3] and 4 nM in data set [2]. Further, the GI50 at 48 h in data set [4] came out at 3450 nM.
As for `Cc1ccc(C(=O)Nc2ccc(CN3CCN(C)CC3)c(C(F)(F)F)c2)cc1Oc1nc(-c2ccncc2)nc2[nH]ncc12`, the results for the GI50 in data set [1] and in data set [2] were 73 nM and 240 nM, respectively.
Taken in the same sequence, the figures for `Cc1ccc(NC(=O)c2ccc(CN3CCN(C)CC3)c(C(F)(F)F)c2)cc1Oc1nc(-c2cccnc2)nc2c1cnn2C` were 477 nM and 411 nM.
`Cc1ccc(C(=O)Nc2ccc(CN3CCN(C)CC3)c(C(F)(F)F)c2)cc1Oc1nc(-c2ccsc2)nc2c1cnn2C`: the GI50 was determined as 736 nM with BaF3, 449 nM in data set [1], 564 nM in data set [3] and 36 nM in data set [2]. In data set [4], the GI50 at 48 h was found to be 5070 nM.
`Cc1cn(-c2cc(NC(=O)c3ccc(C)c(Oc4nc(-c5ccncc5)nc5c4cnn5C)c3)cc(C(F)(F)F)c2)cn1`: the GI50 came to 1570 nM in data set [1] and 2620 nM in data set [2].
The corresponding values for `Cc1ccc(-c2nc(Oc3cc(C(=O)Nc4ccc(CN5CCN(C)CC5)c(C(F)(F)F)c4)ccc3C)c3cnn(C)c3n2)cc1` are 847 nM and 152 nM.
The corresponding values for `Cc1ccc(C(=O)Nc2ccc(CN3CCN(C)CC3)c(C(F)(F)F)c2)cc1Oc1nc(Nc2ccccc2)nc2c1cnn2C` are 123 nM and 70 nM.

Values taken from ChEMBL document CHEMBL4706552, “Discovery of 4-methyl-N-(4-((4-methylpiperazin- 1-yl)methyl)-3-(trifluoromethyl)phenyl)-3-((6-(pyridin-3-yl)-1H-pyrazolo[3,4-d]pyrimidin-4-yl)-oxy)benzamide as a potent inhibitor of RET and its gatekeeper mutant” (Eur J Med Chem, 2020).
